Reference: patent US20260191845A1, “PYRIDINE-2-THIOL 1-OXIDE DERIVATIVES AND THEIR USE FOR TREATMENT OF MAMMALIAN INFECTIONS CAUSED BY MYCOBACTERIUM OR FUNGI” (priority 2022, published 2026)
In brackets after ≈: the same amount, converted by molar mass. Read-outs that look alike come from different tables or passages of the source.

Legend:
[1] = system: Mycobacterium abscessus ATCC 19977; test: REMA MIC90 against M. abscessus ATCC 19977; assay type: cell-based; conditions: Mycobacteroides abscessus
Protocol: Briefly, serial 2-fold dilutions of drug are prepared in 96-well microtiter plates (Fluoronunc, Thermo Fisher, Waltham, MA, USA) in 100 μL of Middlebrook 7H9 medium (Difco), supplemented with 10% OADC without addition of Tween 80. Then, M. abscessus log-phase cultures were diluted (OD600=0.02) and added in the 96-well microtiter plate. Growth controls containing no compound and sterile controls without inoculum are also included. […] After 1 day of incubation at 37° C., 10 μL of resazurin (0.025% w/v) is added to each well, and bacterial viability is assessed after a further 24 h of incubation using a Fluoroskan™ Microplate Fluorometer (Thermo Fisher Scientific, Waltham, MA, USA; excitation=544 nm, emission=590 nm). […] Results are expressed as the average of at least three independent replicates and presented on the following Table 1.

Aspergillus niger = test: Antifungal agar well diffusion assay; conditions: 20 μL water solution in 4 mm well
Protocol: (§1) The well diffusion test was performed using Casitone agar. The inoculum used was prepared using the Candida or Aspergillus strains from a 24-hour culture on Sabouraud dextrose agar, a suspension was made in a sterile saline solution (0.85%). The turbidity of the suspension was adjusted with a spectrophotometer at 530 nm to obtain a final concentration to match that of a 0.5 McFarland standard (0.5-2.5×10^3). 20 mL of Bacto-casitone were melted, cooled to 55° C. and then inoculated with 1 mL of the organism suspension. The inoculated agar was poured into the assay plate (9 cm in diameter) and allowed to cool down on a leveled surface.

[2] = system: Sporobolomyces salmonicolor; test: Antifungal agar well diffusion assay; conditions: 20 μL water solution in 4 mm well
Protocol: as §1

Penicillium notatum = test: Antifungal agar well diffusion assay; conditions: 20 μL water solution in 4 mm well
Protocol: as §1

Candida albicans H8 = test: Antifungal agar well diffusion assay; conditions: 20 μL water solution in 4 mm well
Protocol: as §1

[3] = ATCC19977, MIC90, REMA, Table 1, read-out: MIC in M. abscessus ATCC 19977
[4] = ATCC19977, read-out: MIC in M. abscessus ATCC 19977

Row | Structure (SMILES) | MIC [1, 3] | Inhibition Zone of Test Microorganism (Aspergillus niger) | Inhibition Zone of Test Microorganism [2] | Inhibition Zone of Test Microorganism (Penicillium notatum) | Inhibition Zone of Test Microorganism (Candida albicans H8) | MIC [1, 4]
1 | CC(C)OC(=O)c1ccc([S-])[n+]([O-])c1.[Na+] [Compound 10, Sodium 5-(isopropoxycarbonyl)pyridine-2-thiolate 1-oxide] | 500 µg/mL |  |  |  |  | 
2 | CN(C)C(=O)c1ccc([S-])[n+]([O-])c1.[Na+] [Compound 9, Sodium 5-[(dimethylamino)carbonyl]pyridine-2-thiolate 1-oxide] | 500 µg/mL |  |  |  |  | 
3 | COC(=O)c1ccc([S-])[n+]([O-])c1.[Na+] [Compound 4, Sodium 5-(methoxycarbonyl)pyridine-2-thiolate 1-oxide] | 250 µg/mL |  |  |  |  | 
4 | CCOC(=O)c1ccc(S)[n+]([O-])c1 [Compound 1, Ethyl 6-mercaptonicotinate 1-oxide] | 125 µg/mL (≈ 627 µM) | 26 mm | 43 mm | 17 mm | 56 mm | 
5 | C[C@@H]1[C@H](O)[C@@H](C)/C=C/C=C/C=C/C=C/C=C/C=C/C=C/[C@H](O[C@@H]2O[C@H](C)[C@@H](O)[C@H](N)[C@@H]2O)C[C@@H]2O[C@](O)(C[C@@H](O)C[C@@H](O)[C@H](O)CC[C@@H](O)C[C@@H](O)CC(=O)O[C@H]1C)C[C@H](O)[C@H]2C(=O)O [Amph. B, reference compound] |  | 17 mm | 15 mm | 12 mm | 22 mm | 
6 | NC(=O)c1ccc([S-])[n+]([O-])c1.[K+] [Compound 6, Potassium 5-(aminocarbonyl)pyridine-2-thiolate 1-oxide] |  |  |  |  |  | 500 µg/mL
7 | COC(=O)c1ccc(S)[n+]([O-])c1 [Compound 3, Methyl 6-mercaptonicotinate 1-oxide] | 250 µg/mL (≈ 1350 µM) |  |  |  |  | 
8 | [Na+].[O-][n+]1cc(C(F)(F)F)ccc1[S-] [Compound 5, Sodium 5-(trifluoromethyl)pyridine-2-thiolate 1-oxide] |  | 22 mm | 40 mm | 15 mm | 49 mm | 250 µg/mL
9 | O=C(c1ccc([S-])[n+]([O-])c1)N1CCCCC1.[K+] [Compound 7, Potassium 5-(piperidin-1-ylcarbonyl)pyridine-2-thiolate 1-oxide] |  | 23 mm | 43 mm | 15 mm | 52 mm | 1000 µg/mL
10 | CN(C)C(=O)c1ccc(S)[n+]([O-])c1 [Compound 8, 6-Mercapto-N,N-dimethylnicotinamide 1-oxide] | 500 µg/mL (≈ 2520 µM) |  |  |  |  | 
